Test results taken from patent US8309140B2, “Effect of porcine sheath proteins on the regeneration activity of periodontal ligament” (priority 2005, dated 2012).
Entries after “also recorded” stand apart in the source; their conditions may differ.

What was measured:
[1] = tested on: human periodontal ligament (HPDL) cells; assay: ALP inducing activity of HPDL cells on cell culture system; type: cell-based; settings: for ALP activity of HPDL cells (human synthetic peptides, Example 3): peptides around 1 ng/ml, TGF-β1 10 ng/ml; for ALP inducing activity of HPDL cells (Example 4): peptides 50 μg/mL, TGF-β1 1 ng/mL, BMP-2 1 μg/mL; for ALP inducing activity of HPDL cells (Example 4) / ALP activity of HPDL cells (porcine sheath proteins and synthetic peptides): 96 h; for ALP activity of HPDL cells (porcine sheath proteins and synthetic peptides): 50 μg/ml protein or peptide, TGF-β1 50 ng/ml, BMP-2 500 ng/ml, 10 nM 1α-25dihydroxy-Vitamin D3
Description: (§1) Human periodontal ligament (HPDL) cells were obtained according to the method of Somerman et al., (1988) from healthy premolars which were extracted from the patients for orthodontic reasons. The cells were precultured for 4-6 passages with a-MEM medium to establish the primary cell line. The cells were maintained in the alpha modification of Eagle's medium (α-MEM; Life Technologies, Grand Island, N.Y., USA) containing 10% fetal bovine serum (FBS; Asahi Technoglass, Chiba, Japan) and 1% antibiotics (100 U/ml of Penicillin-G and 100 μg/ml of Streptomycin sulfate; Gibco BRL, Grand Island, N.Y., USA) at 37° C. in a humidified 5% CO2 atmosphere. The ST2 cells (Riken Cell Bank, Tsukuba, Japan), an osteoblast-like mouse bone marrow stromal cell line, were cultured under the same conditions.
HPDL cells were distributed in 96-well plates at a density of approximately 5×10^5 cells per a well and incubated for 24 h. The growth medium was then changed to contain 10 nM of 1α-25dihydroxy-Vitamin D3 (CALBIOCHEM, La Jolla, Calif.) and 50 μg/ml (final concentration) of fractionated enamel protein samples or synthesized peptides dissolved in ultrapure water. After 96 additional hours of incubation, the cells were washed once with PBS, and ALP activity was determined after a 10 min incubation at 37° C. in 10 mM p-nitrophenylphosphate (substrate) in 100 mM 2-amino-2-methyl-1,3-propanediol-HCl buffer (pH 10.0) containing 5 mM MgCl2. After adding 0.2 M NaOH, which stopped the reaction, the absorbance at 405 nm was read on a plate reader.
HPDL cells of approximately 5×10^5 cells per well were distributed in 96-well plates and incubated for 24 h. The growth medium was then changed to contain 10 nM of 1α-25dihydroxy-Vitamin D3 and 50 μg/ml (final concentration) of purified sheath protein or synthesized peptide. After 96 additional hours of incubation, ALP activity was determined using p-nitrophenylphosphate as a substrate.
The bioactivities of these synthetic peptides were tested their cytodifferentiation activity of HPDL cells and ST2 cells by determination of increasing ALP inducing activity on cell culture system. When these peptides applied in cell culture system, the concentration of their peptides was employed around 1 ng/ml. In the case of TGF-1, the concentration was 10 ng/ml.
Normal human periodontal ligament fibroblasts were maintained in an α-minimal essential medium (α-MEM) containing 10% fetal bovine serum, either with or without 10 nM 1α-25dihydroxy-vitamin D3 and 1% antibiotics (100 U/mL of penicillin G and 100 μg/mL of streptomycin sulfate) at 37° C. in a humidified atmosphere of air containing 5% CO2. Another cell line, ST2 cells, was obtained from an osteoblast-like mouse bone marrow stromal cell line. These cells were cultured in the same conditions as those described above.
The ALP inducing activities of synthetic peptides using the cell culture of HPDL cells and ST2 cells were examined. The HPDL cells were distributed in 96-well plates at a density of approximately 5×10^5 cells per well and incubated for 24 h. The medium was then changed to α-MEM containing 10 nM of 1α-25dihydroxy-vitamin D3 and either synthetic peptides or growth factors dissolved in ultra-pure water. After 96 h of incubation, the cells were washed once with phosphate-buffered saline, and 10 mM ρ-nitrophenylphosphate in 100 mM 2-amino-2-methel-1,3-propanediol-HCl buffer (pH 10.0) containing 5 mM MgCl2 was added. The ALP activity was determined after 10 min incubation at 37° C. and the absorbance at 405 nm was read using a plate reader, after adding 0.2 M NaOH to stop the reaction. […] When the synthetic peptides were applied in the cell culture system, their final concentrations were 25 or 50 μg/mL. A TGF-β1 receptor inhibitor (SB431542, 10 μM) was applied to the HPDL cell culture system to examine their influence relative to the ALP inducing activity of the synthetic peptides.

HPDL cells = assay: Mineralization activity of HPDL cells (alizarin red S staining, calcium content); type: cell-based, human; settings: for induction of mineralization of HPDL cells (Example 3): 30 days culture, 1 μg/ml of samples, differentiation medium
Method: (§2) The HPDL cells were plated in 24-well plates at an initial density of 1×10^5 cells/well. After 24 h of incubation, the medium was replaced with growth medium containing 50 μM ascorbic acid, 10 mM β-glycerophosphate, and 10 nM 1α,25-dihydroxyvitamin D3 (differentiation medium) and 1 μg/ml of samples. The medium was changed every 72 h. The cells were maintained for 30 days and then the medium was discarded.
The compartments of cells were fixed in 100% methanol, stained with alizarin red S for 10 min, then washed with ultrapure water and photographed to examine the biomineralization activity. The staining solution was 1% alizarin red S (sodium alizarin sulfonate) (Sigma) dissolved in ultrapure water and adjusted to pH 6.4 with 0.1N ammonium hydroxide.
For measuring the calcium content, the compartments of cells were dissolved by 0.5N hydrochloric acid. The resulting solution was measured by a Calcium C-test kit and protocol (Wako Pure Chemical Industries Ltd, Osaka, Japan). The absorbance at 570 nm was read on a plate reader.
as §2, with “h and the” for “h. The”, “days. The biomineralization activity was examined by staining with alizarin red S” for “days”, “measuring calcium content.” for “then the medium was discarded.”
The HPDL cells were plated in six-well plates at an initial density of 1×10^5 cells per well. […]
For Alizarin Red S staining, the compartments of 28 d cultured cells were fixed in 100% methanol, stained with Alizarin Red S for 10 min, then washed with ultra-pure water and photographed. […] The resulting solution was measured using a Calcium C-test kit and protocol. The absorbance at 570 nm was read with a plate reader. […]

[2] = tested on: human periodontal ligament (HPDL) cells; settings: cited from earlier work
[3] = tested on: osteopontin, osteocalcin and bone sialoprotein expression in HPDL cells; assay: Semi-quantitative PCR of mineralized tissue markers in cultured HPDL cells; type: cell-based, human; settings: 4, 14 and 28 d cultured HPDL cells; H-2 25 μg/mL; TGF-β1 1 ng/mL
Description: Total RNA was extracted using RNAzol™ B from cultured HPDL cells. […] The PCR primers were designed based upon the Homo sapiens mRNA sequences. The primer pairs were as follows: osteopontin, 5′-[…]-3′ (SEQ ID NO: 45) and 5′-[…] TGAA-3′ (SEQ ID NO: 46) (301 bp); osteocalcin, 5′-[…]-3′ (SEQ ID NO: 47) and 5′-[…] GAGGT-3′ (SEQ ID NO: 48) (304 bp); and bone sialo protein, 5′-[…]-3′ (SEQ ID NO: 49) and 5′-[…]-3′ (SEQ ID NO: 50) (448 bp). A primer set amplifying glyceraldehyde-3phosphate dehydrogenase mRNA was used as a control.
The cDNAs generated from HPDL cells […] the DNA Master SYBR Green I kit and protocol and a LightCycler instrument. The relative amount of each mRNA was determined at 50% levels of PCR product, and normalized with use of the relative amount of GAPDH mRNA.

[4] = tested on: buccal dehiscence type bone defects created along the roots of the canine mandibular premolars; assay: Cementum regeneration (CR) activity, eight-week histological analysis on buccal dehiscence model of dogs; type: in vivo, beagle dogs; settings: histological analysis eight weeks after application; buccal dehiscence model of dogs
Method: Approximately 2-year-old male beagle dogs (approximate 15 kg) were used to detect the CR activities after the applications of several enamel protein samples. They had intact dentition and a healthy periodontium. The surgical preparation of buccal dehiscence type bone defects was carried out according to the modified method of Hammarström (1997) under general anesthesia induced and maintained by an endotracheal tube with 1.5-2.0% of halothane (Takeda Yakuhin Co. LTD, Osaka, Japan) in 100% oxygen, after premedicated with intramuscular injection of the mixture of Ketamine HCl (9.8 mg/kg: Sankyo Co. LTD, Tokyo, Japan) and Xylazine HCl (0.7 mg/kg: Bayer Co. LTD, Tokyo, Japan).
Contralateral buccal mucoperiosteal flaps were raised after an intracrevicular incision extending from the first mandibular premolar to the first mandibular molar. After the removing the buccal alveolar bone plate covering the mesial root of the second premolars, the exposed periodontal ligament and cementum of these areas were completely removed by means of a dental bur. At the apical end of the defect, a notch was created to identify the apical extension of the defect, when histological analyses. The distance between the cervical margin and the apical end of the defect was standardized at about 5 mm. The exposed root dentin surfaces were conditioned for 2 min with cotton pellets soaked in a 19% EDTA solution, and then carefully rinsed with sterile saline. Then 50 μg of each enamel protein sample in 100 μl of cold sterile distilled water was applied over the entire buccal surface area of the exposed roots. Finally, the mucoperiosteal flaps were repositioned to their level prior to surgery and sutured. Distilled water was used as a negative control and EMDOGAIN® (BIORA AB, Malmö, Sweden) served as a positive control.
After 8 weeks the dogs were terminated by anesthetization with sodium pentobarbital. Their heads were fixed by perfusion with 0.1 M sodium cacodylate buffer (pH 7.4) containing 4% paraformaldehyde and 1% glutaraldehyde. Tissue blocks, which included teeth, bone, and tissue were dissected and demineralized in 10% formic acid containing 0.06 M sodium citrate and 0.1 M citric acid. All specimens were dehydrated using a graded series of alcohols and then embedded in paraffin. Serial sections (5 μm thick) were made and stained with hematoxylin/eosin for examination by light microscopy.
The length and thickness of cementums regenerated after application of fractionated and purified enamel protein samples and EMD were measured on the computer monitor of histological results. The length of the regenerated cementum was straight distance between the apical end of the defect and coronal extention of the new cementum, as well as to the crest of the new alveolar bone. Also, the thickness of cementum was measured at coronal end, apical end and between them.
CR promoting activity of enamel proteins obtained at each extracted and purified step were examined by eight-week histological analysis of buccal dehiscence type bone defects created along the roots of canine mandible (FIG. 1).

ST2 cells = assay: ALP inducing activity of ST2 cells on cell culture system; type: cell-based, mouse; settings: 50 μg/ml protein or peptide; TGF-β1 50 ng/ml, BMP-2 500 ng/ml
Description: as §1
HPDL cells of approximately 5×10^5 cells per well were distributed in 96-well plates and incubated for 24 h. […] After 96 additional hours of incubation, ALP activity was determined using p-nitrophenylphosphate as a substrate. […]
The ALP inducing activities of synthetic peptides using the cell culture of HPDL cells and ST2 cells were examined. […] The ALP activity was determined after 10 min incubation at 37° C. and the absorbance at 405 nm was read using a plate reader, after adding 0.2 M NaOH to stop the reaction. […]

[5] = 10 nM 1α-25dihydroxy-vitamin D3

Row | Molecule | ALP activity of HPDL cells (human synthetic peptides, Example 3) [1] | induction of mineralization of HPDL cells (Example 3) (HPDL cells) | ALP inducing activity of HPDL cells (Example 4) [1, 5] | CR (cementum regeneration) activity [4] | ALP activity of HPDL cells (porcine sheath proteins and synthetic peptides) [1] | also measured
1 | FADPQGPSLPGMDF (14 aa from 157 to 170 in sequence 11; listed as Homo sapiens) [H-3] | enhanced dose dependently | enhanced the induction of mineralization | – | – | – | –
2 | QVEGPMVQQQVAPSEK (16 aa from 131 to 146 in sequence 10; listed as Sus scrofa) [P-1] | – | – | – | – | – | ALP inducing activity among porcine ESP synthetic peptides (previous study) [2]: highest ALP inducing activity among all the porcine ESP synthetic peptides tested
3 | SDKPPKPELPGVDF (14 aa from 144 to 157 in sequence 11; listed as Homo sapiens) [H-2] | enhanced dose dependently | enhanced the induction of mineralization | highest ALP inducing activity | – | – | mineralization by HPDL cells (Example 4) (HPDL cells; 28 d cell culture, H-2 25 μg/mL, TGF-β1 1 ng/mL): induced mineralization; expressions of osteopontin, osteocalcin and bone sialoprotein [3]: closely similar to those of TGF-β1
4 | TGF-β1: recombinant growth factor, positive control [reference compound] | – | – | enhanced in a dose-dependent manner; also recorded: increased | shown to have the same activity | further increased | ALP inducing activity of HPDL cells when adding TGF-β1 receptor inhibitor SB431542 ([1]; 10 μM SB431542, 10 nM 1α-25dihydroxy-vitamin D3): inhibited distinctly; concentration for increasing ALP inducing activity of HPDL cells, molar ([1]; calculated from molecular weight (TGF-β1 25 kDa; peptides average 1.5 kDa)): 0.4 nM/liter; apt concentration for increasing ALP inducing activity of HPDL cells ([1]; cell culture system): around 10 ng/ml; ALP activity of ST2 cells (porcine sheath proteins and synthetic peptides) (ST2 cells): not stimulated
5 | 13 kDa sheath protein: sheath protein containing the 99 amino acids extending from M32 to Q130 (protein) MLSQYSRFGFGKSFNSLWMHGLLPPHSSFQWMRPREHETQQYEYSLPVHPPPLPSQPSLQPQQPGQKPFLQPTVVTSIQNPVQKGVPQPPIYQGHPPLQ | – | – | – | do not exhibit any cementum regeneration activity | not | –
